Results on 1 molecule are retold here after article PMC6069857, “Effects of novel HDAC inhibitors on urothelial carcinoma cells” (Clinical Epigenetics, 2018).

A word on the CC50: it is the concentration that lowers cell viability or growth by half. For orientation: IC50 means the concentration at which inhibition is half-maximal.

The subject of series [1] is HBLAK. Briefly: MTT viability assay (CC50). It counts as cell-based, human. The following applies: 72 h of incubation. The method, then: (§1) Further experiments were performed in VM-CUB1 and UM-UC-3 cells overexpressing HDAC4 (see below). Standard UCCs were obtained from the DSMZ (Braunschweig, Germany) and Dr. H.B. Grossmann HB (Houston, USA). For comparison, we investigated the spontaneously immortalized normal human bladder cell line HBLAK (provided by CELLnTEC, Bern, Switzerland) and the immortalized human embryonic kidney cell line HEK-293 (provided by Dr. V. Kolb-Bachofen, Duesseldorf, Germany). Cells were cultured and treated in DMEM GlutaMAX-I (Gibco, Darmstadt, Germany; UCCs and HEK-293) supplemented with 10% fetal calf serum (Biochrom, Berlin, Germany), except for HBLAK cultured in CnT-Prime Epithelial Culture Medium (CELLnTEC, Bern, Switzerland; HBLAK), at 37 °C and 5% CO2. STR (short tandem repeat) profiling via DNA fingerprint analysis was performed for all cell lines. Primary cultures of normal urothelial cells (UP) were established from healthy ureters removed during tumor nephrectomy and cultured as described. These cultures were used with informed consent of the patients and approval by the Ethics Committee of the Medical Faculty of the Heinrich-Heine-University, study number 1788. All inhibitors were dissolved in DMSO and stored as 10 mM stocks. […] The pan-HDACi inhibitor SAHA previously studied in detail was used for comparison. Solvent control cells were treated with equal amounts of DMSO.
(§2) For the determination of cellular mean cytotoxic concentration (CC50), UCCs, non-malignant control cells, and HDAC4-overexpressing clones were seeded in a 96-well format and treated once with a range of defined concentrations of the HDAC inhibitors. After 72 h, viability was quantified by NAD(P)H-dependent 3-(4,5-dimethylthiazol-2-yl)-2,5-diphenyltetrazolium bromide dye reduction assay (MTT, Sigma Aldrich, St. Louis, MO). CC50 values were estimated from three independent experiments by non-linear regression analysis (four-parameter logistic equation) using Prism 4.0 (Graph Pad) or Origin 8.0 (Origin Lab, Northhampton, GB). For time-dependent proliferation experiments, viability of untreated or inhibitor-treated cells was measured after 24, 48, and 72 h.
On the technique in general: Tetrazolium dyes change colour on reduction, which living cells bring about.

Series [2] has as its system VM-CUB1. Briefly: MTT viability assay (CC50). It counts as cell-based, human. The following applies: VM-CUB1, MTT, 72 h of incubation. On the procedure: as §1, §2
In series [3] the test system is HEK-293. Kind of series: MTT viability assay (CC50). As to conditions: HEK-293, MTT, 72 h of incubation. Type of series: cell-based, human. On the procedure:
as §1, §2

The test system of series [4] is UM-UC-3. Briefly: MTT viability assay (CC50). As to conditions: UM-UC-3, MTT, 72 h of incubation. Type of series: cell-based, human. The method, then: as §1, §2
The subject of series [5] is 639-V. Briefly: MTT viability assay (CC50). It counts as cell-based, human. As to conditions: 72 h of incubation. On the procedure:
as §1, §2

Series [6] concerns the target HDAC3 (Homo sapiens, UniProt O15379). Briefly: In vitro fluorescence-based HDAC inhibition assay (Reaction Biology). As to conditions: read-out: IC50 HDAC3; experiment performed once.
Series [7] concerns UCCs. Kind of series: Western blot of acetylated α-tubulin and histones H3/H4. Type of series: cell-based, human. The following applies: 48 h, 19i 1 or 2 μM. The method, then:
Total protein extraction, purification of histones, and Western blot analysis were performed as previously described. Briefly, cells were incubated for 30 min on ice in RIPA-buffer (150 mM NaCl, 1% Triton X-100, 0.5% desoxycholate, 1% Nonidet P-40, 0.1% SDS, 1 mM EDTA, 50 mM TRIS (pH 7.6)) containing 10 μl/ml protease inhibitor cocktail (#P-8340, Sigma Aldrich, St. Louis, MO). Histones were extracted for detection of histone H3 and H4 acetylation by a modified published protocol employing sulfuric acid extraction and TCA-precipitation. Concentrations of total protein and histones were determined by BCA protein assay (Thermo Fisher Scientific, Carlsbad, CA). Subsequently, total cell proteins (15 μg) or extracted histones (2 μg) were separated by SDS-PAGE (total proteins 10–12% gels, histones 15% gels), transferred to PVDF membranes (Merck Millipore, Berlin, Germany), and were incubated with primary antibodies (at RT for 1 h or 4 °C overnight, see Additional file 3: Table S2) following blocking with 5% non-fat milk or BSA (bovine serum albumin) in TBST (150 mM NaCl, 10 mM TRIS, pH 7.4 and 0.1% Tween-20). For signal detection, membranes were incubated with a suitable horseradish peroxidase-conjugated secondary antibody (see Additional file 2: Table S1) at RT for 1 h and signals were visualized by SuperSignal™ West Femto (Thermo Fisher Scientific, Carlsbad, CA) and WesternBright Quantum kit (Biozym, Hessisch Oldendorf, Germany).
For orientation: Immunoblotting shows a protein as a band on a membrane.

The target in series [8] is T1, HDAC5 (Homo sapiens, UniProt Q9UQL6).
T1 construct: purchased Reaction Biology Corp. (Malvern, PA)
T1 sequence (Q9UQL6 whole entry): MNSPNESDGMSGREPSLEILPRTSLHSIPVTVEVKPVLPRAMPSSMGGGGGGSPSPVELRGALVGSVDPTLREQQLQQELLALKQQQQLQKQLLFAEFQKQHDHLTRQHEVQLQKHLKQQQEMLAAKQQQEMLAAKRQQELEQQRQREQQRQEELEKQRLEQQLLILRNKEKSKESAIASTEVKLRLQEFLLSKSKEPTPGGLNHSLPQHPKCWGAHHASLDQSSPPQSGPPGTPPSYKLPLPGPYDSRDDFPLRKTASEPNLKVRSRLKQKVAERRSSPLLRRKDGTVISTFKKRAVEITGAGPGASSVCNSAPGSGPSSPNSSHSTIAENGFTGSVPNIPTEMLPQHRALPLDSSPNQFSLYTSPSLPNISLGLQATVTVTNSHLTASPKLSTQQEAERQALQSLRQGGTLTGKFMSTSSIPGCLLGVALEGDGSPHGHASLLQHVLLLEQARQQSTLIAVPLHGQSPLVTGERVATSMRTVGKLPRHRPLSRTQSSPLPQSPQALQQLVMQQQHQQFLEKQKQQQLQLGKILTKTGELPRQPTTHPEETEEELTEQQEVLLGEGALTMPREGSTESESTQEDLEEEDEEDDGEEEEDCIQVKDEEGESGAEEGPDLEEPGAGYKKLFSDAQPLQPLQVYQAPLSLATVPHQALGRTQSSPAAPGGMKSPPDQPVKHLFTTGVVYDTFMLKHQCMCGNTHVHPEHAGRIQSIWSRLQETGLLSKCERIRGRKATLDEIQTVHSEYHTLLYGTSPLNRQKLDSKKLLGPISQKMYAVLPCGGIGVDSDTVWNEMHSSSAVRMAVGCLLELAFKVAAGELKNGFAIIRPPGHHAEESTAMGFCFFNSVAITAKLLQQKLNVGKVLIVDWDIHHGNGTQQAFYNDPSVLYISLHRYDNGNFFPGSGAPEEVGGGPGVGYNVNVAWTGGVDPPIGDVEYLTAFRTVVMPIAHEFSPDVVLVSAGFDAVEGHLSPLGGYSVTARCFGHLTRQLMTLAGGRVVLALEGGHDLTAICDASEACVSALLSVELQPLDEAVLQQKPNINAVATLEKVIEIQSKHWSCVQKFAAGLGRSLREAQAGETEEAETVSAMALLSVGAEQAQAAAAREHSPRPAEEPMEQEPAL
The following applies: older assays, given for HDAC4/5 together; cited from earlier work.

Series [9] relates to three UCCs (VM-CUB1, UM-UC-3, 639-V). Briefly: qRT-PCR of TS and p21CIP1 mRNA. It counts as cell-based, human. The following applies: 19i 2 μM, 24 or 48 h, all three UCCs. The method, then: Total cell RNA was isolated by the Qiagen RNeasy Mini Kit (Qiagen, Hilden, Germany) according to the manufacturer’s protocol, and cDNA was synthesized using QuantiTect Reverse Transcription Kit (Qiagen, Hilden, Germany) with an extended incubation time of 30 min at 42 °C as previously described. Target mRNA expression was measured by qRT-PCR with QuantiTect SYBR Green RT-PCR Kit (Qiagen, Hilden, Germany) on the LightCycler® 96 Real-Time PCR system with software version 1.1 (Roche Diagnostics, Rotkreuz, Switzerland). All used primers, comprising QuantiTect Primer assays (Qiagen, Hilden, Germany), self-designed target primers, and primers for the reference housekeeping gene TBP (TATA-box binding protein), are listed in Additional file 2: Table S1.
A general note: Quantitative PCR measures a nucleic acid by following its amplification.

The target in series [10] is HDAC6 (Homo sapiens, UniProt Q9UBN7). Briefly: In vitro fluorescence-based HDAC inhibition assay (Reaction Biology). The following applies: read-out: IC50 HDAC6; experiment performed once.
HDAC6, sequence (Q9UBN7 whole entry): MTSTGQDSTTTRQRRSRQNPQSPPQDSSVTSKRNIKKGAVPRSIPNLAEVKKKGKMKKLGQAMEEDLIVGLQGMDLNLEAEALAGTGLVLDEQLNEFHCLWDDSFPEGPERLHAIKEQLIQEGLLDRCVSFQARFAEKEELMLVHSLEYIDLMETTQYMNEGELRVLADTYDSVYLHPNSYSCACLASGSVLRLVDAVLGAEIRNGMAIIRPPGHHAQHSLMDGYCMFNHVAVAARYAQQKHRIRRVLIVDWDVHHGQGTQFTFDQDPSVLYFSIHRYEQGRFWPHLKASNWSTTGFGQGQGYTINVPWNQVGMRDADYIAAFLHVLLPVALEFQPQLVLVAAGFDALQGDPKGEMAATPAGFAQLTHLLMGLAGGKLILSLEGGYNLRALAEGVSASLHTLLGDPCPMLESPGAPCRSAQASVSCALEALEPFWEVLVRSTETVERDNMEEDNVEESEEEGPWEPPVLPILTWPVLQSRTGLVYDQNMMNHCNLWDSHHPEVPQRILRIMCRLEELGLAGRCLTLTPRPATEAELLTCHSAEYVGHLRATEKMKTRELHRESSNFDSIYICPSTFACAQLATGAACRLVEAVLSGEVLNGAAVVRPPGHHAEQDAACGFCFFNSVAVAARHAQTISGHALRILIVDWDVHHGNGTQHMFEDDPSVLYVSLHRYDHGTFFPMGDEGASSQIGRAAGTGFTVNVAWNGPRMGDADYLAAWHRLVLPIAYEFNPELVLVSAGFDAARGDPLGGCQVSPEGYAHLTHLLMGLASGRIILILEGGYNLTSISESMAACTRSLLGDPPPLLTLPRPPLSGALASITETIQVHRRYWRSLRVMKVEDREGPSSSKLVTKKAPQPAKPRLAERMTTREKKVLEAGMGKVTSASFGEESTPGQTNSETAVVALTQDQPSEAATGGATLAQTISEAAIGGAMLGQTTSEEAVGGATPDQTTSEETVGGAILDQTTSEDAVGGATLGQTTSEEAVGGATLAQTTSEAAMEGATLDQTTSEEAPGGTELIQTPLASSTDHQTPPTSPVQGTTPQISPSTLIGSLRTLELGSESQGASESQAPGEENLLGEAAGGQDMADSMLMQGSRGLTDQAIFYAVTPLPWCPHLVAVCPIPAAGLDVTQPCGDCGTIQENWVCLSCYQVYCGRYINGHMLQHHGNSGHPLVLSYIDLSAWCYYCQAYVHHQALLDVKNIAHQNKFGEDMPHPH
The test system of series [11] is VM-CUB1 and UM-UC-3 cells. Briefly: Nuclear morphology analysis (DAPI, rhodamine phalloidin). It counts as cell-based, human. As to conditions: 19i 2 μM, 24 or 48 h. The method, then:
As previously described, after fixation with 4% formaldehyde, cells were permeabilized (0.3% Triton X100 in PBS, 10 min, RT), blocked (1% BSA in PBS, 30 min, RT), and subsequently incubated for 1 h at RT with 14 nM Rhodamine Phalloidin in blocking solution. Following counter-staining of nuclei with 1 μg/ml DAPI (4′,6-diamidino-2-phenylindole), cells were mounted with fluorescence mounting medium (DAKO, Glostrup, Denmark). For each treatment option and sample, 500 cells were counted and the amount of mitosis and micronuclei was quantified using a Nikon Eclipse 400 microscope (Nikon, Tokyo, Japan).

HDAC3, sequence (O15379 whole entry): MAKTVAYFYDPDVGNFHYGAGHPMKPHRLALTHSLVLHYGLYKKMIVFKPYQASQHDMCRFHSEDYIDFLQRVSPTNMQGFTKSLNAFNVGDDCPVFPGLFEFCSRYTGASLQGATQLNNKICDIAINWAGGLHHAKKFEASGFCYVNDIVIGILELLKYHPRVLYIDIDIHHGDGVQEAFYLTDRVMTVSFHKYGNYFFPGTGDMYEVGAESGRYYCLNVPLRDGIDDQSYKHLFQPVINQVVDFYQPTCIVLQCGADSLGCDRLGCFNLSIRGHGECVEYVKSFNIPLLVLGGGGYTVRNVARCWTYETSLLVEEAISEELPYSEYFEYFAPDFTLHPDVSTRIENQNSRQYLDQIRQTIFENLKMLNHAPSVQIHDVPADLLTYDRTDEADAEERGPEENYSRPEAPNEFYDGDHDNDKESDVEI
HDAC3, sequence (Q9Y618 395-489 partner limits assumed): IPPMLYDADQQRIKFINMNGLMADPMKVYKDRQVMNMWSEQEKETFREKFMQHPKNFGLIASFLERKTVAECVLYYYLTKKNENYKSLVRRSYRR

In the case of `Cc1cc(C)cc(C(=O)NOCCCCCC(=O)NO)c1` [19i], the CC50 was over 5000 nM in [1]; 970 nM in series [2]; 610 nM in series [3]; 820 nM in series [4]; 1030 nM in [5]. For the same molecule, the IC50 in series [6] worked out at 236 nM; in [10], 32 nM. Also, the “global acetylation of histones H3 and H4” value in series [7] is listed as “enhanced”. Also, the “acetylation of α-tubulin” value in series [7] (SAHA 2.5 μM) was “strongly induced”. In addition, in [8], the “in vitro IC50 HDAC5” value is given as “nanomolar range”. For the same molecule, the “p21CIP1 mRNA expression” value in [9] is reported as “increased”. Also, the “thymidylate synthase (TS) mRNA expression” value in series [9] is “decreased”. In series [11], the number of mitoses result was “decreased sharply”. In [11], the “percentage of cells with micronuclei” value is on record as “increased”.
